Experimental data published in US20210230548A1, “NATURAL KILLER CELLS ENGINEERED TO EXPRESS CHIMERIC ANTIGEN RECEPTORS WITH IMMUNE CHECKPOINT BLOCKADE” (Board of Regents, The University of Texas System, priority 2018, published 2021).

Columns and labels:
[1] = test system: iC9/CAR.19/IL-15 CB-NK cells; assay: Suicide gene validation in vivo in Raji tumor-bearing mice; set-up: species or system mouse; details: dimerizer on days 7 and 9 post NK infusion, sacrifice day 12; both control and CISH KO cells
Description: (§1) Activation of suicide gene in vitro and validation in vivo: The small-molecule dimerizer AP1903 (10 nM), was added to CB-NK cell cultures for 4 h. The elimination of transduced cells was evaluated by Annexin-V/Live dead staining. The efficacy of the suicide gene was also tested in vivo by treating tumor-bearing mice that had received iC9/CAR.19/IL-15+ NK cells (control or CISH KO) with two doses of AP1903 (50 μg each) intraperitoneally, 2 days apart on days 7 and 9. Two other groups of mice (control and CISH KO) served as control without AP1903 treatment. All mice were sacrificed on day 12, and blood and organs (Liver, spleen and bone marrow) were collected, processed and flow cytometry was performed to determine CAR-NK fraction and viability.

[2] = test system: iC9/CAR.19/IL-15 NK cells; assay: Activation of suicide gene in vitro with dimerizer AP1903; type: cell-based
Description: as §1

CISH locus = assay: GUIDE-seq off-target identification in HEK293 cells constitutively expressing Cas9; type: cell-based; details: GuideSeq
Source text: Off-target Identification: The GUIDE-seq method was employed for unbiased discovery of off-target editing events (Tsai et al., 2015). In this study, HEK293 cells that constitutively express the S pyogenes Cas9 nuclease (“HEK293-Cas9” cells) were the source of Cas9. Alt-R® gRNA complexes were formed by combining Alt-R tracrRNA and Alt-R crRNA XT at a 1:1 molar ratio. gRNA complexes were delivered by nucleofection using the Amaxa™ Nucleofector™ 96-well Shuttle™ System (Lonza, Basel, Switzerland). For each nucleofection, 3.5×10^5 HEK293-Cas9 cells were washed with 1×PBS, resuspended in 20 μL solution SF (Lonza) and combined with 10 μM gRNA along with 0.5 μM GUIDE-seq dsDNA donor fragment. This mixture was transferred into one well of a Nucleocuvette™ Plate (Lonza) and electroporated using protocol 96-DS-150. DNA was extracted 72 hrs after electroporation using the GeneJET Genomic DNA purification kit (Thermo Fisher Scientific). NGS library preparation, sequencing, and operation of the GUIDE-seq software was performed as previously described except that Needleman-Wunch alignment was incorporated (Tsai et al., 2016).

Compound | reduction in iC9/CAR.19/IL-15 CB-NK cells in blood and tissues (liver, spleen, bone marrow) [1] | time to apoptosis of transduced NK cells ([2]; 10 nM) | apoptosis of transduced NK cells ([2]; 10 nM added to cultures) | off-target sites / events (CISH locus)
CC[C@H](C(=O)N1CCCC[C@H]1C(=O)O[C@H](CCc1ccc(OC)c(OC)c1)c1cccc(OCC(=O)NCCNC(=O)COc2cccc([C@@H](CCc3ccc(OC)c(OC)c3)OC(=O)[C@@H]3CCCCN3C(=O)[C@@H](CC)c3cc(OC)c(OC)c(OC)c3)c2)c1)c1cc(OC)c(OC)c(OC)c1 [AP1903] | striking reduction | ≤ 4 h | induced apoptosis of transduced NK cells | –
crRNA2: crRNA targeting CISH exon 4, sequence TGTACAGCAGTGGCTGGTGG (SEQ ID NO:2) (listed as DNA, chemistry not given here) | – | – | – | even higher frequencies of off-target events
